From EP1299350B1, “SUBSTITUTED BENZAMIDES FOR IMMUNE ENHANCEMENT AND FOR THE TREATMENT OF CANCER, INFECTION AND MANIC-DEPRESSIVE ILLNESS” (Active Biotech AB, priority 2000, dated 2002)

Test system: AP-1
Test: AP-1-driven luciferase reporter gene assay in Jurkat T cell line (Jurkat/AP-1rep), stimulated with phorbol myristate acetate and ionomycin
Assay type: cell-based
Conditions: Jurkat/AP-1rep cells stimulated for 5.5 h at 37°C with phorbol myristate acetate and ionomycin; luciferase luminescence; Figure 1
Protocol: The compounds of general formula (I) were assayed for AP-1 enhancement. The compounds of this invention were tested in assays for the modulation of stimulated activity of an AP-1-driven reporter gene in the Jurkat T cell line. The activation of this reporter gene results in luciferase production and the amounts of produced luciferase parallels the level of AP-1 activity. A high level of AP-1 activity is pivotal to e.g. high production of IL-2.
Cells from the Jurkat T cell line were transfected with an AP-1-driven luciferase gene reporter construct (Parra et al., 1997) together with a selection gene vector. Selected clones from the resulting stable AP-1 reporter gene transfectants were used in the assays for AP-1 transcription factor activity. These transfected Jurkat cells (Jurkat/AP-1rep) were grown in RPMI 1640 supplemented with glutamine, hepes, sodium pyruvate, gentamicin, 10% FCS and G418. To evaluate distinct compounds for their capacity to enhance the AP-1 activity, Jurkat/AP-1rep cells were stimulated for 5.5 h in the temperature of 37°C with phorbol myristate acetate and ionomycin in the absence and presence of test compounds. The 96 well plates containing the cell cultures were then put on ice until harvested. […] AP-1 activity was measured as luminiscence produced by luciferase substrate, which was added to the wells in conjunction with measurement.

Question: For `CCN(CC)CCCNC(=O)c1ccc(NC(=O)C(C)C)cc1OC` [Compound A, N-[(3-diethylamino)propyl]-4-isobutyrylamino-2-methoxybenzamide], which “activity of the AP-1 driven reporter” value is on record?
Answer: The value was “enhance the activity of the AP-1 driven reporter in a dose dependent fashion down to µM concentrations”.
